# Assay results as given in patent publication US9481636B2, “N-benzylaniline derivative and uses thereof” (Nanjing Medical University, priority 2011, dated 2016).
# Test system: OGD-injuried neurons (primary cortical neurons)
# Assay: Cell viability assay: LDH release by OGD-injured primary cortical neurons
# Format: cell-based, mice
# Conditions: Mus musculus, Primary cortical neuron; drug concentration 10^−6 M/L; OGD 2 hours, LDH after 8 hours
# Description: After primary neurons were cultured for 9 days, the medium was replaced by DMEM high glucose medium containing 1% FBS, serum-starved overnight and then washed twice with OGD culture solution. This OGD culture solution contains DMEM medium, 1% FBS, 1% penicillin/streptomycin and B27, and contains no sugar. Then, the primary neurons were incubated with the test drugs for 30 minutes, OGD culture solution was added into an anaerobic tank and oxygen-deprived for 2 hours. The OGD culture solution was discarded, and replaced by oxygen-saturated DMEM medium containing 1% FBS, 1% penicillin/streptomycin and B27. After 8 hours the culture solution was collected to measure LDH level.
# After the primary cortical neurons were treated with various processes, neuronal culture solution in six-well plates was pipetted to a 1.5 mL plastic centrifuge tube; cells were washed three times with PBS solution and each well was added PBS 1000 μl. The cells were freezed and thawed repeated for three times, centrifuged at 12000′ g for 5 minutes at 4° C., and the supernatant was removed for use. The activity of LDH enzyme was determined with 50 μl culture solution and 25 μl supernatant using lactate dehydrogenase kit.
# Protective Effects of the Objective Compounds Against Primary Cortical Neuronal Injury Cultured In Vitro (See Table 2)
row,Compound,inhibition at 1 µM [%]
1,"CC(=O)Oc1cc(NCc2cc(C(F)(F)F)cc(Cl)c2O)ccc1C(=O)OC1CC2CCC1(C)C2(C)C (stereo not drawn) [ZL006-51, bornyl-2-acetyloxy-4-(2-hydroxy-3-chloro-5-trifluoromethylbenzyl)aminobenzoate]",66.3
2,"CCCC(=O)Oc1cc(NCc2cc(C(F)(F)F)cc(Cl)c2O)ccc1C(=O)OC1CC2CCC1(C)C2(C)C (stereo not drawn) [ZL006-52, bornyl-2-butyryloxy-4-(2-hydroxy-3-chloro-5-trifluoromethylbenzyl)aminobenzoate]",40.5
3,"CC1(C)C2CCC1(C)C(OC(=O)c1ccc(NCc3cc(C(F)(F)F)cc(Cl)c3O)cc1O)C2 (stereo not drawn) [ZL006-47, bornyl-2-hydroxy-4-(2-hydroxy-3-chloro-5-trifluoromethylbenzyl)aminobenzoate]",84.2
4,"CC(=O)Oc1c(Cl)cc(C(F)(F)F)cc1CNc1ccc(C(=O)OC2CC3CCC2(C)C3(C)C)c(O)c1 (stereo not drawn) [ZL006-80, bornyl-2-hydroxy-4-(2-acetyloxy-3-chloro-5-trifluoromethylbenzyl)aminobenzoate]",41.1
5,"CC(Nc1ccc(C(=O)O)c(O)c1)c1cc(Br)ccc1O (stereo not drawn) [ZL006-15, 2-hydroxy-4-[1-(2-hydroxy-5-bromo-phenyl)]ethylaminobenzoic acid]",28.6
6,"CCCCOc1cc(NCc2cc(C(F)(F)F)cc(Cl)c2O)ccc1C(=O)OC1CC2CCC1(C)C2(C)C (stereo not drawn) [ZL006-50, bornyl-2-n-butoxy-4-(2-hydroxy-3-chloro-5-trifluoromethylbenzyl)aminobenzoate]",40.2
7,"COc1c(C(=O)OC2CC3CCC2(C)C3(C)C)ccc(NCc2cc(Cl)cc(Cl)c2O)c1Cl (stereo not drawn) [ZL006-26, bornyl-2-methoxy-3-chloro-4-(2-hydroxy-3,5-dichlorobenzyl)aminobenzoate]",35.4

# Same assay, conditions: drug concentration 10^−6 M/L; OGD 2 hours, LDH after 8 hours
row,Compound,Inhibition of LDH release (%)
1,"CC(=O)Oc1cc(NCc2cc(F)ccc2O)ccc1C(=O)OC1CC2CCC1(C)C2(C)C (stereo not drawn) [ZL006-71, bornyl-2-acetyloxy-4-(2-hydroxy-5-fluorobenzyl) aminobenzoate]",7.8
2,"COc1cc(NCc2cc(Br)cc(Cl)c2O)ccc1C(=O)OC1CC2CCC1(C)C2(C)C (stereo not drawn) [ZL006-41, bornyl-2-methoxy-4-(2-hydroxy-3-chloro-5-bromobenzyl) aminobenzoate]",45.5
3,"CCCCCCOc1cc(NCc2cc(Cl)cc(Cl)c2O)ccc1C(=O)OC1CC2CCC1(C)C2(C)C (stereo not drawn) [ZL006-22, bornyl-2-n-hexyloxy-4-(2-hydroxy-3,5-dichlorobenzyl) aminobenzoate]",2.5
4,"CC(=O)Oc1c(Cl)cc(Br)cc1CNc1ccc(C(=O)OC2CC3CCC2(C)C3(C)C)c(O)c1 (stereo not drawn) [ZL006-78, bornyl-2-hydroxy-4-(2-acetyloxy-3-chloro-5-bromobenzyl) aminobenzoate]",70.6
5,"CC1(C)C2CCC1(C)C(OC(=O)c1ccc(NCc3cc(Br)cc(Cl)c3O)cc1O)C2 (stereo not drawn) [ZL006-39, bornyl-2-hydroxy-4-(2-hydroxy-3-chloro-5-bromobenzyl) aminobenzoate]",81.2
6,"CC(=O)N(Cc1cc(Br)cc(Cl)c1O)c1ccc(C(=O)OC2CC3CCC2(C)C3(C)C)c(O)c1 (stereo not drawn) [ZL006-46, bornyl-2-hydroxy-4-[N-(2-hydroxy-3-chloro-5-bromobenzyl)-N-acetyl]aminobenzoate]",72.5
7,"CN(Cc1cc(Br)cc(Cl)c1O)c1ccc(C(=O)OC2CC3CCC2(C)C3(C)C)c(O)c1 (stereo not drawn) [ZL006-45, bornyl-2-hydroxy-4-[N-(2-hydroxy-3-chloro-5-bromobenzyl)-N-methyl]aminobenzoate]",67.2
8,"COc1cc(NCc2cc(F)cc(Cl)c2O)ccc1C(=O)OC1CC2CCC1(C)C2(C)C (stereo not drawn) [ZL006-57, bornyl-2-methoxy-4-(2-hydroxy-3-chloro-5-fluorobenzyl) aminobenzoate]",23.6
9,"CCCCOc1cc(NCc2cc(F)cc(Cl)c2O)ccc1C(=O)OC1CC2CCC1(C)C2(C)C (stereo not drawn) [ZL006-58, bornyl-2-n-butoxy-4-(2-hydroxy-3-chloro-5-fluorobenzyl) aminobenzoate]",25.1
10,"methyl 2-(bornyl-2-carbonylethoxy)-4-[N-(2-hydroxy-3,5-dichlorobenzyl)-N-acetyl]aminobenzoate [ZL006-35]",12.8
11,"CC1(C)C2CCC1(C)C(OC(=O)c1ccc(NCc3cc(F)cc(Cl)c3O)cc1O)C2 (stereo not drawn) [ZL006-55, bornyl-2-hydroxy-4-(2-hydroxy-3-chloro-5-fluorobenzyl) aminobenzoate]",36.3
12,"COc1cc(N(C)Cc2cc(Cl)cc(Cl)c2O)ccc1C(=O)OC1CC2CCC1(C)C2(C)C (stereo not drawn) [ZL006-29, bornyl-2-methoxy-4-[N-(2-hydroxy-3,5-dichlorobenzyl)-N-methyl]aminobenzoate]",41.7
13,"CN(Cc1cc(Cl)cc(Cl)c1O)c1ccc(C(=O)O)c(O)c1 [ZL006-09, 2-hydroxy-4-[N-(2-hydroxy-3,5-dichlorobenzyl)-N-methyl]aminobenzoic acid]",29.5
14,"CC1(C)C2CCC1(C)C(OC(=O)c1cc(NCc3cc(Cl)cc(Cl)c3O)ccc1O)C2 (stereo not drawn) [ZL006-01, bornyl-2-hydroxy-5-(2-hydroxy-3,5-dichlorobenzyl) aminobenzoate]",2.3
15,"COc1c(Cl)cc(Br)cc1CNc1ccc(C(=O)OC2CC3CCC2(C)C3(C)C)c(O)c1 (stereo not drawn) [ZL006-77, bornyl-2-hydroxy-4-(2-methoxy-3-chloro-5-bromobenzyl) aminobenzoate]",44.1
16,"CN(Cc1cc(F)cc(Cl)c1O)c1ccc(C(=O)OC2CC3CCC2(C)C3(C)C)c(O)c1 (stereo not drawn) [ZL006-61, bornyl-2-hydroxy-4-[N-(2-hydroxy-3-chloro-5-fluorobenzyl)-N-methyl]aminobenzoate]",56.5
17,"CC1(C)C2CCC1(C)C(OC(=O)c1cc(NCc3cc(Br)cc(Cl)c3O)ccc1O)C2 (stereo not drawn) [ZL006-40, bornyl-2-hydroxy-5-(2-hydroxy-3-chloro-5-bromobenzyl) aminobenzoate]",41.8
18,"CCCCOc1cc(NCc2cc(Cl)cc(Cl)c2O)ccc1C(=O)OC1CC2CCC1(C)C2(C)C (stereo not drawn) [ZL006-21, bornyl-2-n-butoxy-4-(2-hydroxy-3,5-dichlorobenzyl) aminobenzoate]",6.2
19,"COC(=O)c1ccc(N(Cc2cc(Cl)cc(Cl)c2O)C(C)=O)cc1OC(C)=O [ZL006-81, methyl 2-acetyloxy-4-[N-(2-hydroxy-3,5-dichlorobenzyl)-N-acetyl]aminobenzoate]",31.8
20,"CC(=O)Oc1cc(NCc2cc(F)cc(Cl)c2O)ccc1C(=O)OC1CC2CCC1(C)C2(C)C (stereo not drawn) [ZL006-59, bornyl-2-acetyloxy-4-(2-hydroxy-3-chloro-5-fluorobenzyl) aminobenzoate]",61.7
21,"CC1(C)C2CCC1(C)C(OC(=O)c1ccc(NCc3cc(F)ccc3O)cc1O)C2 (stereo not drawn) [ZL006-69, bornyl-2-hydroxy-4-(2-hydroxy-5-fluorobenzyl) aminobenzoate]",17.3
22,"CCOC(=O)c1ccc(N(C)Cc2cc(Cl)cc(Cl)c2O)cc1C(=O)OCC [ZL006-13, diethyl 4-[N-(3,5-dichloro-2-hydroxybenzyl)-N-methyl]aminophthalate]",31.4
23,"CC1(C)C2CCC1(C)C(OC(=O)c1ccc(NCc3cc(C(F)(F)F)ccc3O)cc1O)C2 (stereo not drawn) [ZL006-72, bornyl-2-hydroxy-4-(2-hydroxy-5-trifluoromethylbenzyl) aminobenzoate]",21.6
24,"CC1(C)C2CCC1(C)C(OC(=O)c1cc(NCc3cc(Cl)ccc3O)ccc1O)C2 (stereo not drawn) [ZL006-03, bornyl-2-hydroxy-5-(2-hydroxy-5-chlorobenzyl) aminobenzoate]",17.8
25,"CC(=O)Oc1c(Cl)cc(Cl)cc1CNc1ccc(C(=O)OC2CC3CCC2(C)C3(C)C)c(O)c1 (stereo not drawn) [ZL006-76, bornyl-2-hydroxy-4-(2-acetyloxy-3,5-dichlorobenzyl) aminobenzoate]",40.5
26,"COC(=O)c1ccc(N(Cc2cc(C(F)(F)F)cc(Cl)c2O)C(C)=O)cc1OC(C)=O [ZL006-83, methyl 2-acetyloxy-4-[N-(2-hydroxy-3-chloro-5-trifluoromethylbenzyl)-N-acetyl]aminobenzoate]",33.2
27,"COC(=O)c1cc(N(C)Cc2cc(F)cc(Cl)c2O)ccc1O [ZL006-11, methyl 2-hydroxy-5-[N-(2-hydroxy-3-chloro-5-fluorobenzyl)-N-methyl]aminobenzoate]",41.1
28,"CC1(C)C2CCC1(C)C(OC(=O)c1ccc(NCc3cc(Br)ccc3O)cc1O)C2 (stereo not drawn) [ZL006-63, bornyl-2-hydroxy-4-(2-hydroxy-5-bromobenzyl) aminobenzoate]",22.8
29,"CC1(C)C2CCC1(C)C(OC(=O)c1ccc(NCc3cc(Cl)ccc3O)cc1O)C2 (stereo not drawn) [ZL006-66, bornyl-2-hydroxy-4-(2-hydroxy-5-chlorobenzyl) aminobenzoate]",13.3
